Reference: patent publication US7947695B2, “5-membered annelated heterocyclic pyrimidines as kinase inhibitors” (Janssen Pharmaceutica NV, priority 2005, dated 2011)

Legend:
Type in all cases: biochemical
CDK4/cyclinD1 = CDK4/cyclinD1 (Homo sapiens, UniProt P11802); experiment: In vitro filtration assay for CDK4 inhibitory activity (pRb phosphorylation, [33P]-ATP); settings: GST-pRb substrate, 1 μM unlabeled ATP, 25° C. 45 minutes, read-out: cdk4 filter (pIC50) (converted)
Experimental: (§1) Compounds of the present invention were tested in an in vitro filtration assay assessing CDK4 activity by means of its pRb-phosphorylation activity using [^33P]-ATP as phosphor donor. The radioactive phosphorylated pRb is then captured on filtermats and the incorporated [^33P] quantitated using a phosphorage storage screen.
The CDK4 kinase reaction is performed at 25° C. for 45 minutes in a 96-well microtiterplate. The 25 μl reaction volume contains 50 mM Hepes pH 7.5, 10 mM NaF, 10 mM MgCl2, 1 mM Na3VO4, 1 μM unlabeled ATP, 1 mM DTT, 0.5 μCi AT^33P, 0.76 μg/well GST-pRb, 50 ng CDK4/cyclinD1/well and 0.2% compound in 100% DMSO.
(§2) The reaction is stopped by adding 5 μl of a 3% phosphoric acid solution. 10 μl of the reaction mixture is then spotted onto a Filtermat P30 filter (Wallac) and washed 3 times for 5 min. in 75 mM phosphoric acid and 1 time for 5 min. in methanol prior to drying and quantification on the Typhoon (Amersham) using a phosphorage storage screen.
(§3) For each experiment, controls (containing enzyme (complex) and DMSO without compound), a blank incubation (containing DMSO but no enzyme (complex) or compound) and samples (containing enzyme (complex) and compound dissolved in DMSO) were run in parallel. All compounds tested were dissolved and eventually further diluted in DMSO. […] In each test, the blank value was subtracted from both the control and the sample values. The control sample represented maximal enzyme activity. For each sample, the amount of cpm was expressed as a percentage of the mean cpm value of the controls. When appropriate, IC50-values (concentration of the drug, needed to reduce the enzyme activity to 50% of the control) were computed using linear interpolation between the experimental points just above and below the 50% level. Herein the effects of test compounds are expressed as pIC50 (the negative log value of the IC50-value).

AURORA A = target: T1, AURORA A (Homo sapiens, UniProt O14965); experiment: In vitro filtration assay for AURORA A inhibitory activity; settings: Kemptide substrate, 1 μM unlabeled ATP, 25° C. 40 minutes, read-out: Aurora A see C.2 (pIC50) (converted)
T1 sequence (O14965 1-403): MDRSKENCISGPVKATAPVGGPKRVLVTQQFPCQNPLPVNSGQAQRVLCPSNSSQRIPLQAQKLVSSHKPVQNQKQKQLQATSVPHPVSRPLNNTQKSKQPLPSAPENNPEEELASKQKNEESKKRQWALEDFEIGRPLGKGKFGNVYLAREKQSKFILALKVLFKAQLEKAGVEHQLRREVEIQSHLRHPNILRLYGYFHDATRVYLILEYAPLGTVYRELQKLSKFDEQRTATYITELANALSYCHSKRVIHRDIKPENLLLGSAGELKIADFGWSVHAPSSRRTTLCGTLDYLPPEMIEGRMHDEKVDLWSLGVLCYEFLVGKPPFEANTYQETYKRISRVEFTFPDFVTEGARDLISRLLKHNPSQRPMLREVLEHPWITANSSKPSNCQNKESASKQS
Experimental: as §1, with “AURORA A” for “CDK4”, “substrate-phosphorylation” for “pRb-phosphorylation”, “substrate” for “pRb”
The Aurora-A kinase reaction is performed at 25° C. for 40 minutes in a 96-well microtiterplate. The 25 μl reaction volume contains 12 mM MOPS pH 7, 0.4 mM EDTA, 0.002% Brij35, 1% glycerol, 0.02% beta-mercapto-ethanol, 0.2 mg/ml BSA, 1 μM unlabeled ATP, […] [^33P]-ATP, 200 μM Kemptide, 3 ng Aurora A/well and 0.2% compound in 100% DMSO.
as §2, §3

AURORA B = AURORA B (Homo sapiens, UniProt Q96GD4); experiment: In vitro filtration assay for AURORA B inhibitory activity; settings: peptide (C(LRRWSLG)×4), 1 μM unlabeled ATP, 25° C. 40 minutes, read-out: Aurora B see C.3 (pIC50) (converted)
Experimental: as §1, with “AURORA B” for “CDK4”, “substrate-phosphorylation” for “pRb-phosphorylation”, “substrate” for “pRb”
The Aurora-B kinase reaction is performed at 25° C. for 40 minutes in a 96-well microtiterplate. The 25 μl reaction volume contains 60 mM Hepes pH 7.5, 3 mM MgCl2, 3 mM MnCl2, 3 μM Na3VO4, 50 μg/ml PEG20000, 1 μM unlabeled ATP, 1 mM DTT, 0.2 μCi AT^33P, 0.25 μg/well peptide (C(LRRWSLG)×4),100 ng Aurora-B/well and 0.2% compound in 100% DMSO. The reaction is stopped by adding 5 μl of a 3% phosphoric acid solution. 10 μl of the reaction mixture is then spotted onto a Filtermat P30 filter (Wallac) and washed 3 times for 5 min. in 75 mM phosphoric acid and 1 time for 5 min. in methanol prior to drying and quantification on the Typhoon (Amersham) using a phosphorage storage screen.
as §3

AURORA B, sequence (Q96GD4 whole entry): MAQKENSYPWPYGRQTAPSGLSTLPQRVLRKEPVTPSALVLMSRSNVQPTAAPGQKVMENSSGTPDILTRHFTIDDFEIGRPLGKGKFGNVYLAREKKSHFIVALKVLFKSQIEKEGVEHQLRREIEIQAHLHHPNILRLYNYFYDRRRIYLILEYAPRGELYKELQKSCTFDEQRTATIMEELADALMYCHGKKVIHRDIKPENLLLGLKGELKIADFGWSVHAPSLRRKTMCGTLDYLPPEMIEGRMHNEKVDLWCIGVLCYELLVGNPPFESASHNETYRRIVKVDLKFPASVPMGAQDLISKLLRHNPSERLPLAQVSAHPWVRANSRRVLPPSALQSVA
CDK4/cyclinD1, sequence (P11802 whole entry): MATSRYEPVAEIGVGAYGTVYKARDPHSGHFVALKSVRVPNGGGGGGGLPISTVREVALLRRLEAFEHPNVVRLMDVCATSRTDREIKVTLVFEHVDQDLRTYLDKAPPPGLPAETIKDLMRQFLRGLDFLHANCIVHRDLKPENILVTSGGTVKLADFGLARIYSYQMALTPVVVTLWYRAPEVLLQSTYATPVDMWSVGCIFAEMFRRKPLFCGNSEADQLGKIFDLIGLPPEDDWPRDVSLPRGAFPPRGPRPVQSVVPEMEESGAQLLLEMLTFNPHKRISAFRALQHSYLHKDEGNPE
CDK4/cyclinD1, sequence (P24385 whole entry partner): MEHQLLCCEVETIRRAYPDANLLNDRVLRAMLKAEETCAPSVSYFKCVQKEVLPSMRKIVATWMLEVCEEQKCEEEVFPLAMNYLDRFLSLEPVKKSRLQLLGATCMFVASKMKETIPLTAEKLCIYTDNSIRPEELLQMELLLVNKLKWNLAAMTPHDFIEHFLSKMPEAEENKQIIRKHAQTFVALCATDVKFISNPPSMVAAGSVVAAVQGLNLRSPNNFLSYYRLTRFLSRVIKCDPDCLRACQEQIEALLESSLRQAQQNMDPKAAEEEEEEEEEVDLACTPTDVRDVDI

IC50 (CDK4/cyclinD1) [µM]	IC50 (AURORA A) [µM]	IC50 (AURORA B) [µM]	SMILES
5.01	1	> 10	c1cc(Nc2ncc3cnn(C4CCOCC4)c3n2)ccc1CN1CCOCC1 [compound 51]
0.0794	0.158	0.316	c1cc(Nc2ncc3cnn([C@H]4C[C@@H]5CC[C@H]4C5)c3n2)ccc1CN1CCOCC1 [compound 52]
5.01	> 10	> 10	CC(=O)N1CCN(c2ccc(Nc3ncc4cnn(C5CCCCC5)c4n3)cc2)CC1 [compound 19]
1	0.1	3.16	CC(C)(C)OC(=O)N1CCN(c2ccc(Nc3ncc4cnn(C5CCCCC5)c4n3)cc2)CC1 [compound 25]
5.01	> 10	> 10	O=c1[nH]c2cnc(Nc3ccc(N4CCOCC4)nc3)nc2n1C1CCCCC1 [compound 81]
> 10	1.26	> 10	CC(C)(C)OC(=O)N1CCC(N(Cc2ccc(Nc3ncc4cnn(C5CCCCC5)c4n3)cc2)C(=O)OC(C)(C)C)CC1 [compound 61]
> 10	> 10	> 10	COCCCN1CCN(Cc2ccc(N(C(=O)OC(C)(C)C)c3ncc4cnn(C5CCCCC5)c4n3)cc2)CC1 [compound 42]
0.251	0.158	> 10	CN1CCN(c2ccc(Nc3ncc4cnn(C5CCCCC5)c4n3)cc2Cl)CC1 [compound 18]
0.0316	0.398	> 10	CN1CCN(c2ccc(Nc3ncc4cnn([C@H]5C[C@@H]6CC[C@H]5C6)c4n3)cc2)CC1 [compound 16]
1	2.51	> 10	c1cc(Nc2ncc3cnn(C4CCCCC4)c3n2)ncc1N1CCOCC1 [compound 28]
3.98	3.16	3.16	CC(C)(C)OC(=O)N(c1ccc(CN2CCOCC2)cc1)c1ncc2cnn([C@H]3C[C@@H]4CC[C@H]3C4)c2n1 [compound 41]
0.0251	0.631	1	CN1CCC(NCc2ccc(Nc3ncc4cnn([C@H]5C[C@@H]6CC[C@H]5C6)c4n3)cc2)CC1 [compound 69]
0.501	> 10	7.94	CC(C)(O)CN1CCN(Cc2ccc(Nc3ncc4cnn(C5CCOCC5)c4n3)cc2)CC1 [compound 53]
3.98	> 10	> 10	CN1CCC(NCc2ccc(Nc3ncc4[nH]c(=O)n(C5CCCCC5)c4n3)cc2)CC1 [compound 87]
0.0251	0.126	3.16	O=C(c1ccc(Nc2ncc3cnn(C4CCCCC4)c3n2)cc1)N1CCOCC1 [compound 56]
0.0251	0.158	6.31	CN1CCC(N(Cc2ccc(Nc3ncc4cnn(C5CCCCC5)c4n3)cc2)C(=O)OC(C)(C)C)CC1 [compound 62]
> 10	> 10	> 10	COCCCC(=O)N1CCN(Cc2ccc(N(C(=O)OC(C)(C)C)c3ncc4cnn(C5CCCCC5)c4n3)cc2)CC1 [compound 44]
2	> 10	> 10	CN(C)CCOC(=O)c1ccc(Nc2ncc3[nH]c(=O)n(C4CCCCC4)c3n2)cc1 [compound 82]
0.0794	> 10	2	COCCCN1CCC(NCc2ccc(Nc3ncc4cnn(C5CCCCC5)c4n3)cc2)CC1 [compound 77]

IC50 (CDK4/cyclinD1) [µM]	IC50 (AURORA A) [µM]	IC50 (AURORA B) [µM]	SMILES
0.1	0.1	7.94	CN1CCN(C(=O)c2ccc(Nc3ncc4cnn([C@H]5C[C@@H]6CC[C@H]5C6)c4n3)cc2)CC1 [compound 57]
0.1	0.251	> 10	c1ccc(N2CCN(Cc3ccc(Nc4ncc5cnn(C6CCCCC6)c5n4)cc3)CC2)nc1 [compound 35]
2	1.58	> 10	CN1CCN(c2ccc(Nc3ncc4[nH]c(=O)n([C@H]5C[C@@H]6CC[C@H]5C6)c4n3)cc2)CC1 [compound 88]
0.0501	> 10	> 10	c1cc(Nc2ncc3cnn(C4CCCCC4)c3n2)ncc1N1CCNCC1 [compound 30]
0.316	1.58	3.16	CN1CCN(c2ccc(Nc3ncc4c(n3)N(C3CCCCC3)C(=O)C4)cc2)CC1 [compound 89]
0.01	0.631	> 10	OCCN1CCN(c2ccc(Nc3ncc4cnn(C5CCCCC5)c4n3)cc2)CC1 [Co. No. 15]
0.00251	1	> 1.58	c1cc(Nc2ncc3cnn(C4CCCCC4)c3n2)ccc1CNCCN1CCOCC1 [Co. No. 4]
> 10	> 10	> 10	CC(C)(C)OC(=O)N(c1ccc(CNCCN2CCOCC2)cc1)c1ncc2cnn(C3CCOCC3)c2n1 [compound 70]
0.0631	0.316	0.398	CN1CCN(Cc2ccc(Nc3ncc4cnn([C@H]5C[C@@H]6CC[C@H]5C6)c4n3)cc2)CC1 [compound 40]
0.00501	0.1	0.158	CN1CCN(c2ccc(Nc3ncc4cnn([C@H]5C[C@@H]6CC[C@H]5C6)c4n3)cc2)CC1 (single isomer, unassigned) [Co. No. 23]
0.00794	1.58	> 10	CN1CCC(NCc2ccc(Nc3ncc4cnn(C5CCCCC5)c4n3)cc2)CC1 [Co. No. 60]
> 10	> 10	> 10	CN1CCN(Cc2ccc(N(C(=O)OC(C)(C)C)c3ncc4cnn(C5CCOCC5)c4n3)cc2)CC1 [compound 48]
0.2	0.501	> 10	CN1CCN(c2ccc(Nc3ncc4cnn(C5CCOCC5)c4n3)cc2)CC1 [compound 27]
0.501	0.0398	> 10	c1ccc(N2CCN(c3ccc(Nc4ncc5cnn(C6CCCCC6)c5n4)cc3)CC2)nc1 [compound 22]
0.631	0.398	0.501	COCCCN1CCC(NC(=O)c2ccc(Nc3ncc4cnn(C5CCCCC5)c4n3)cc2)CC1 [compound 97]
0.0251	1	2.51	CC(C)(O)CN1CCC(NCc2ccc(Nc3ncc4cnn(C5CCCCC5)c4n3)cc2)CC1 [compound 63]
0.0158	0.794	> 10	c1cc(Nc2ncc3cnn(C4CCCCC4)c3n2)ccc1CNC1CCNCC1 [compound 59]
> 10	> 10	> 10	COCCCN1CCC(NCc2ccc(N(C(=O)OC(C)(C)C)c3ncc4cnn(C5CCCCC5)c4n3)cc2)CC1 [compound 76]
